Laboratory results from patent US10407440B2, “Therapeutic agent for motor disorders” (KYOWA HAKKO KIRIN CO., LTD., priority 2009, dated 2019).

Assays:
Assay type in all cases: in vivo
[1] = system: MPTP-treated common marmoset that developed motor complication; assay: Test Example 4: combination with L-DOPA in MPTP-treated common marmoset that developed motor complication
Procedure: 10 mg/kg of L-DOPA (containing 2.5 mg/kg of benserazide hydrochloride) was administered by gavage to common marmoset that developed chronic parkinsonian symptoms by treatment with MPTP by the method described in Test Example 3 (MPTP-treated marmoset) twice a day at about 6 hr intervals. L-DOPA was repeatedly administered for more than 3 weeks to induction of motor complication (dyskinesia symptom, wearing-off phenomenon, on-off fluctuation and the like) in MPTP-treated marmoset in addition to parkinsonian symptoms, and the marmoset was used for the test. […] The locomotor activity was automatically measured using a computer by a measuring apparatus with a photocell. […] The subject animal was placed in an observation cage (with locomotor activity measuring apparatus) one day before the test compound administration for preconditioning to the environment. The symptoms of Parkinson's disease were continuously monitored through one-way mirror and disability score was scored each 10 min for 6 hr.

[2] = system: MPTP-treated common marmoset; assay: Test Example 3: combination with L-DOPA in MPTP-treated common marmoset, motor disability score; settings: L-DOPA alone 2.5, 5.0, 7.5 and 10.0 mg/kg (with 1/4 amount benserazide hydrochloride)
Source text: Parkinson's disease is a disease based on the progressive degeneration and loss of dopaminergic neuron in substantia nigra-striatum. In primates, a treatment with MPTP, which is a dopamine neurotoxin, causes selective degeneration and loss of dopaminergic neuron in substantia nigra-striatum and induces symptoms of akinesia, muscle rigidity and the like. The primates treated with MPTP are known as the model of Parkinson's disease [Proceedings of the National Academy of Science USA, vol. 80, p. 4546 (1983)]. In addition, common marmoset belongs to Haplorhini and is known to show the symptoms of Parkinson's disease by MPTP, like other Haplorhini [Neuroscience Letter, vol. 57, p. 37 (1985)]. […] The parkinsonian symptoms were judged using the index described in a previous report [Annales of Neurology, vol. 43, p. 507 (1998)]. All compounds were used as a suspension in 0.5% MC400, 10% aqueous sucrose solution. The subject animal was placed in an observation cage (with locomotor activity measuring apparatus) one day before the test compound administration for preconditioning to the environment. The symptoms of Parkinson's disease were continuously monitored through one-way mirror and disability score was scored each 10 min for 6 hr.
The locomotor activity was automatically measured using a computer by a measuring apparatus with a photocell.

[3] = system: MPTP-treated common marmoset that developed motor complication; assay: Test Example 5: influence on dyskinesia in MPTP-treated common marmoset that developed motor complication; settings: L-DOPA alone 1.25, 2.5, 5.0, 7.5 and 10 mg/kg (with benserazide hydrochloride)
Procedure: 10 mg/kg of L-DOPA (containing 2.5 mg/kg of benserazide hydrochloride) was administered to common marmoset that developed chronic parkinsonian symptoms by treatment with MPTP by the method described in Test Example 3 (MPTP-treated marmoset) twice a day at about 6 hr intervals. L-DOPA was repeatedly administered for more than 3 weeks to induction of motor complication (dyskinesia symptom, wearing-off phenomenon, on-off fluctuation and the like) in MPTP-treated marmoset in addition to parkinsonian symptoms, and the marmoset was used for the test. The dyskinesia severity was rating using the rating scale described in a previous report [[…] of Neurology, vol. 43, p. 507 (1998)] as in Test Example 2. […] The subject animal was placed in an observation cage (with locomotor activity measuring apparatus) one day before the test compound administration for preconditioning to the environment. The dyskinesia symptoms were observed through one-way mirror and scored each 20 min for 6 hr. [table] The locomotor activity was automatically measured using a computer by a measuring apparatus with a photocell.

N[C@@H](Cc1ccc(O)c(O)c1)C(=O)O [L-DOPA]
duration (on-time) of anti-parkinsonian activities of L-DOPA ([1]; L-DOPA 2.5 mg/kg alone, gavage): about 50 min
minimum disability score ([1]; L-DOPA 2.5 mg/kg alone, gavage): 5.33±0.80
parkinsonian symptoms ([1]; L-DOPA alone 2.5 mg/kg or 10 mg/kg (with benserazide hydrochloride)): decreased with the increasement of dosage
parkinsonian symptoms [2]: decreased within increasement of the dosage
dyskinesia [3]: dyskinesia was induced
